pIC50: −log10 of the molar value.
Columns and labels:
[1] = system: NCI-H460; assay: cells; format: functional, cell-based; conditions: Homo sapiens, NCI-H460, 96 h;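 note: cytotoxicity determined with an MTT assay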
Description: Cytotoxicity against human NCI-H460 cells after 96 hrs by MTT assay

[2] = target: Phosphatidylinositol 4,5-bisphosphate 3-kinase catalytic subunit alpha isoform (Homo sapiens, UniProt P42336); assay: Inhibition of PI3Kalpha (unknown origin) using PIP2 as substrate by Kinase-Glo assay
Phosphatidylinositol 4,5-bisphosphate 3-kinase catalytic subunit alpha isoform, sequence (P42336 whole entry, canonical isoform): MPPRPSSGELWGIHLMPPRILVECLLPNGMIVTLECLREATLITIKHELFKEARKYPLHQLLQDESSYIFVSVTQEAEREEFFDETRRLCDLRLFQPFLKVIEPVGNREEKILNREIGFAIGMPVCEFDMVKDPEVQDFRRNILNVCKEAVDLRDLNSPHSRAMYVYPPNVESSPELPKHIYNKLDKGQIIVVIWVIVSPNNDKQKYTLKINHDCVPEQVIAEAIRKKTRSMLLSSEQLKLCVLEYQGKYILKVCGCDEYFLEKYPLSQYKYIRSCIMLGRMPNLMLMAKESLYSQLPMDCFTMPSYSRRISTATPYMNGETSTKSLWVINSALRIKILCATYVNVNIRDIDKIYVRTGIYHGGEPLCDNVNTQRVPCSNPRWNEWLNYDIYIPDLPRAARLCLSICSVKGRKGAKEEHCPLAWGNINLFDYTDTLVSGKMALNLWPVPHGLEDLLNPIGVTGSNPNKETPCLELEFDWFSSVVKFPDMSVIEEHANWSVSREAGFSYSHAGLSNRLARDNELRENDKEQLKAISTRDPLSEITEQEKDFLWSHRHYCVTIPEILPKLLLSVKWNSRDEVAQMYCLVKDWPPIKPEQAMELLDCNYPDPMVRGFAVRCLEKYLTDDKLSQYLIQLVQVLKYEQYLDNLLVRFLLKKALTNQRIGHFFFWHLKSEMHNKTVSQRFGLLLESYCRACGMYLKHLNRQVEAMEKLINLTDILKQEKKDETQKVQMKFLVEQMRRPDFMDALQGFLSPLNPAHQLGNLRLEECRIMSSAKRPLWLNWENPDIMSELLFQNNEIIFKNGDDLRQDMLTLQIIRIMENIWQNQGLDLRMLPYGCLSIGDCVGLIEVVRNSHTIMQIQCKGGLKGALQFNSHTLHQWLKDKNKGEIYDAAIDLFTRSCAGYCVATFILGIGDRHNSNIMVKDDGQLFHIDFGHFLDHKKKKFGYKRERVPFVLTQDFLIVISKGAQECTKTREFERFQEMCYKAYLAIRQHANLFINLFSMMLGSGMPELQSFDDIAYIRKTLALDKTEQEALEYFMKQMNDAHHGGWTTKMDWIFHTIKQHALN

SMILES	pIC50 [2]	pIC50 [1]
COc1ncc(-c2cc(OC3CCOCC3)c3nc(N)nc(C)c3c2)cc1NS(=O)(=O)C1CC1	8.60	6.03
COc1ncc(-c2cc(OC3CCN(C)CC3)c3nc(N)nc(C)c3c2)cc1NS(=O)(=O)c1ccc(F)cc1F	8.32	6.18
COc1ncc(-c2cc(OC3CCCCC3)c3nc(N)nc(C)c3c2)cc1NS(=O)(=O)c1ccc(F)cc1F	9.02	7.02
COc1ccc(-c2cc(OC3CCOCC3)c3nc(N)nc(C)c3c2)cn1	7.51	6.01
Cc1nc(N)nc2c(OC3CCOCC3)cc(-c3cnc(Cl)c(NS(=O)(=O)c4ccc(F)cc4)c3)cc12	8.77	5.92
COc1ncc(-c2cc(OCC3CCCO3)c3nc(N)nc(C)c3c2)cc1NS(=O)(=O)c1ccc(F)cc1F (stereo unspecified)	8.96	
COc1ncc(-c2cc3c(C)nc(N)nc3n([C@H]3CC[C@H](OCCO)CC3)c2=O)cc1NS(=O)(=O)c1ccc(F)cc1F	9.06	6.44
COc1ncc(-c2cc(OC3CCOCC3)c3nc(N)nc(C)c3c2)cc1F	7.80	5.96
COc1ncc(-c2cc(OCCN3CCOCC3)c3nc(N)nc(C)c3c2)cc1NS(=O)(=O)c1ccc(F)cc1F	8.48	5.96
COCCOc1cc(-c2cnc(OC)c(NS(=O)(=O)c3ccc(F)cc3F)c2)cc2c(C)nc(N)nc12		6.70
COc1ncc(-c2cc(OC3CCOCC3)c3nc(N)nc(C)c3c2)cc1NS(=O)(=O)c1ccc(F)cc1	8.92	7.02
COc1ncc(-c2cc(OC3CCOCC3)c3nc(N)nc(C)c3c2)cc1NS(C)(=O)=O	8.59	6.07
COc1ncc(-c2cc(OC3CCOCC3)c3nc(N)nc(C)c3c2)cc1NS(=O)(=O)c1ccc(Cl)s1	8.96	
COc1ncc(-c2cc(OC3CCOCC3)c3nc(NC(C)=O)nc(C)c3c2)cc1NS(C)(=O)=O	7.96	5.49
COc1ncc(-c2cc(OC)c3nc(N)nc(C)c3c2)cc1NS(=O)(=O)c1ccc(F)cc1F		6.55
COc1ncc(-c2cc(OCC3CCOC3)c3nc(N)nc(C)c3c2)cc1NS(=O)(=O)c1ccc(F)cc1F (stereo unspecified)	8.92	
CNc1nc(C)c2cc(-c3cnc(OC)c(NS(=O)(=O)c4ccc(F)cc4F)c3)cc(OC3CCOC(C)(C)C3)c2n1 (stereo unspecified)	8.74	6.60
COc1ncc(-c2cc(OC3CCC(F)(F)CC3)c3nc(N)nc(C)c3c2)cc1NS(=O)(=O)c1ccc(F)cc1F	8.80	7.08
COc1ncc(-c2cc(OC(C)C)c3nc(N)nc(C)c3c2)cc1NS(=O)(=O)c1ccc(F)cc1F	9.15	6.85
COc1ncc(-c2cc(OCC3CC3)c3nc(N)nc(C)c3c2)cc1NS(=O)(=O)c1ccc(F)cc1F	8.85	6.70

Continued, in another order:

pIC50 [2]	SMILES	pIC50 [1]
6.90	COc1ncc(-c2cc(OC3CCOCC3)c3nc(N(C)C)nc(C)c3c2)cc1NS(=O)(=O)c1ccc(F)cc1F	5.37
8.74	CNc1nc(C)c2cc(-c3cnc(OC)c(NS(=O)(=O)c4ccc(F)cc4F)c3)cc(OCC3CCOCC3)c2n1	6.40
8.70	CNc1nc(C)c2cc(-c3cnc(OC)c(NS(=O)(=O)c4ccc(F)cc4F)c3)cc(OCC3CCOC3)c2n1 (stereo unspecified)	6.51
8.85	COc1ncc(-c2cc(OC3CCOCC3)c3nc(NC(C)=O)nc(C)c3c2)cc1NS(=O)(=O)c1ccc(F)cc1F	7.28
8.27	COc1ncc(-c2cc(OC3CCOCC3)c3nc(NCC4CC4)nc(C)c3c2)cc1NS(=O)(=O)c1ccc(F)cc1F	6.39
8.82	CCNc1nc(C)c2cc(-c3cnc(OC)c(NS(=O)(=O)c4ccc(F)cc4F)c3)cc(OC3CCOCC3)c2n1	6.62
8.85	Cc1ncc(-c2cc(OC3CCOCC3)c3nc(N)nc(C)c3c2)cc1NS(=O)(=O)c1ccc(F)cc1F	5.68
9.08	COc1ncc(-c2cc(O[C@H]3CCOC3)c3nc(N)nc(C)c3c2)cc1NS(=O)(=O)c1ccc(F)cc1F	7.03
8.18	CNc1nc(C)c2cc(-c3cnc(OC)c(NS(=O)(=O)c4ccc(F)cc4F)c3)cc(OC3CCCC3)c2n1	
8.85	CNc1nc(C)c2cc(-c3cnc(OC)c(NS(=O)(=O)c4ccc(F)cc4F)c3)cc(O[C@H]3CCOC3)c2n1	
8.96	COc1ncc(-c2cc(OC3CCOCC3)c3nc(N)nc(C)c3c2)cc1NS(=O)(=O)c1ccc(F)cc1Cl	7.77
8.39	CNc1nc(C)c2cc(-c3cnc(OC)c(NS(=O)(=O)c4ccc(F)cc4F)c3)cc(OC3CCC3)c2n1	
9.02	COc1ncc(-c2cc(OC3CCC3)c3nc(N)nc(C)c3c2)cc1NS(=O)(=O)c1ccc(F)cc1F	
9.14	COc1ncc(-c2cc(OCC3CCOCC3)c3nc(N)nc(C)c3c2)cc1NS(=O)(=O)c1ccc(F)cc1F	7.68
8.01	CNc1nc(C)c2cc(-c3cnc(OC)c(NS(=O)(=O)c4ccc(F)cc4F)c3)cc(OC3CCCCC3)c2n1	5.77

Source: ChEMBL document CHEMBL4145625 (J Med Chem, 2018)
